Data reported in patent US9714212B2, “Chemical compounds derived from normemantine and use of same in the medical field” (M2I DEVELOPMENT, priority 2013, dated 2017).
pIC50: −log10 of the molar value.

Tests used:
[1] = Toxicity after a single intravenous administration in mice; assay type: in vivo, mice C57/Black 6J; conditions: male mice, single 0.125 μg/kg intravenously
Description: (§1) All the mice are the species C57/Black 6J provided by Charles River Laboratories (France) and about 8 weeks old.
(§2) The volume administered to each mouse is defined as […] and is administered once intravenously by means of a suitable syringe and needle.

Solubility in water = assay type: physicochemical
[2] = Mouse study of distribution in the body; assay type: in vivo, mice C57/Black 6J
Description: as §1, §2
At the prescribed time the mice are sacrificed, ground material from the organs is extracted and the concentration therein is analyzed by HPLC-MS assays.

NMDA receptors [3] = test system: T1, NMDA receptors; test: Displacement of tritiated MK-801 from cerebral cortex membrane homogenate (first experiment); assay type: binding; conditions: for pIC50: R0 MK-801, 2 hours at 37° C.
T1 construct: Emission ratio 1st test (%); other: R0 MK-801; [R1]; 1 · 10^−5 Mol/l; first test; Emission ratio 1st test (%); 1 · 10^−6 Mol/l; 1 · 10^−7 Mol/l; 1 · 10^−8 Mol/l; Emission ratio 1
Excerpt: (§3) In this example, the affinity of fluoroethyl normemantine for NMDA receptors will be compared with that of glutamate (Glu) and of the product Dizocilpine (called “MK-801”), which are known NMDA receptor […] (see Neuroscience Letters, Vol. 80 (1), p. 111-114). MK-801 binds to two different sites in rat brain (Brain Res. 378, p. 133).
(§4) To that end, a material containing NMDA receptors will first be immersed in a solution containing labeled MK-801 (first experiment) or glutamate (second experiment) and then these materials are incubated in solutions containing fluoroethyl normemantine at various concentrations. Next, the radioactive emissions before and after this second incubation are compared. Lower emissions mean that fluoroethyl normemantine has a stronger affinity for NMDA receptors than that of the references and that NMDA receptors are inhibited thereby.
By means of these measurements, a correlation can be established between the concentration of the compound IE and NMDA receptor inhibition. The magnitude of the half-maximal inhibitory concentration (IC50) is deduced therefrom.
As the product to be tested (product R1), either memantine or compound I is used. The experimental protocol is as follows: a homogenate of cerebral cortex membrane (140 μg of proteins) is prepared and then incubated for 2 hours at 37° C. with 10 nM […] (tritiated MK-801) in the absence or presence of compound R1 (in buffer containing 5 mM HEPES/Tris (pH=7.4) and 0.1 mM ethyleneglycol tetraacetic acid). The comparison is made with an incubation of […] MK-801. The samples are quickly filtered under vacuum through glass-fiber filters and rinsed with 50 mM iced Tris-HCl. The filters are dried and their radioactivity is counted on a scintillation counter. The concentration of compound R1 varies, and by comparing for each concentration the difference in emission between the control filter (MK-801 alone) and the MK-801/R1 mixture filter, the ratio of inhibition of compound R1 for each concentration is obtained.

[4] = Lipophilicity log(P), n-octanol / pH 7.4 buffer, HPLC; assay type: physicochemical; conditions: 50/50 by volume pH 7.4 buffer solution and octanol
Excerpt: Lipophilicity: determined by log(P)=log([I]n-octanol/[I]water), by placing the compound (I) in a 50/50 mixture by volume of pH 7.4 buffer solution and octanol, separating the phases, then assaying by means of HPLC the level of the compound (I) present in each of said phases.

NMDA receptors [5] = test system: T2, NMDA receptors; test: Displacement of tritiated glutamate from cerebral cortex membrane homogenate (second experiment); assay type: binding; conditions: R0 Glu
T2 construct: Emission ratio 1st test (%); other: R0 Glu; [R1]; 1 · 10^−6 M; first test; Emission ratio 1st test (%); 1 · 10^−7 M; 1 · 10^−8 M; 1 · 10^−9 M
Excerpt: as §3
as §4, with “thereby. […]” for “thereby.”
The experimental protocol is much the same as in the first experiment: a homogenate of cerebral cortex membrane (140 μg of protein) is prepared and then incubated for 1 hour at 4° C. with 5 nM tritiated glutamate (tritiated Glu) in the absence or presence of fluoroethyl normemantine (in buffer containing 5 mM Tris-HCl (pH=7.7) and 10 mM ethyleneglycol tetraacetic acid). […] The filters are dried and their radioactivity is counted on a scintillation counter. […]

[6] = mice, 0.125 μg/kg intravenously, sacrifice at 3 minutes

Compound: NC12CC3CC(C1)CC(CCF)(C3)C2 [^18F-fluoroethyl normemantine]
- toxicity (conclusion) [1]: not toxic at the doses tested
- solubility (Solubility in water): > 100 mM
- Brain: % of the injected dose [2, 6]: 12 % of the injected dose
- Kidneys: share of injected dose [2, 6]: 18%
- Liver: share of injected dose [2, 6]: 20%

Compound: CC12CC3CC(C)(C1)CC(N)(C3)C2 [Memantine]
- affinity, order of magnitude (NMDA receptors [3]; R0 MK-801): ~10^−6 M
- pIC50 (NMDA receptors [3]): 5.96
- Mean (emission ratio) (NMDA receptors [3]; R0 MK-801, [R1] 1 · 10^−5 Mol/l): 10.8%
- Mean (emission ratio) (NMDA receptors [3]; R0 MK-801, [R1] 1 · 10^−6 Mol/l): 52.3%
- Mean (emission ratio) (NMDA receptors [3]; R0 MK-801, [R1] 1 · 10^−7 Mol/l): 88.8%
- Mean (emission ratio) (NMDA receptors [3]; R0 MK-801, [R1] 1 · 10^−8 Mol/l): 101.4%
- Mean (emission ratio) (NMDA receptors [3]; R0 MK-801, [R1] 1 · 10^−9 Mol/l): 96.9%
- Mean (emission ratio) (NMDA receptors [3]; R0 MK-801, [R1] 3 · 10^−6 Mol/l): 29.0%
- Mean (emission ratio) (NMDA receptors [3]; R0 MK-801, [R1] 3 · 10^−7 Mol/l): 73.1%
- Mean (emission ratio) (NMDA receptors [3]; R0 MK-801, [R1] 3 · 10^−8 Mol/l): 97.5%
- Mean (emission ratio) (NMDA receptors [3]; R0 MK-801, [R1] 3 · 10^−9 Mol/l): 103.3%

Compound: NC12CC3CC(C1)CC(CCF)(C3)C2 [compound (I)]
- log(P) [4]: 3.1 (±0.5)

Compound: NC12CC3CC(C1)CC(CCF)(C3)C2 [Fluoroethyl normemantine]
- affinity for the brain (share in brain), comparison with prior art ([2]; comparison sentence of b89, time not restated): 12%
- affinity, order of magnitude (NMDA receptors [3]; R0 MK-801): ~10^−6 M
- displacement of MK-801 (NMDA receptors [3]; R0 MK-801): displaces MK-801
- pIC50 (NMDA receptors [3]): 5.21
- ability to displace Glu (NMDA receptors [5]): unable to displace Glu
- IC50 (NMDA receptors [5]; 1 hour at 4° C.): cannot be measured
